Entries after “also recorded” stand apart in the source; their conditions may differ.
Key:
[1] = tested on: skin excisional wounds in diabetic rats; assay: skin excisional wound healing in STZ-induced diabetic rats; format: in vivo, rat (Lewis); details: Tacrolimus 0.1 mg/kg daily, AMD3100 1.0 mg/kg every two days s.c., saline day 23
From the text: Diabetic rat model. Streptozotocin (STZ) is an antibiotic that can cause pancreatic beta-cell destruction, so it is widely used experimentally as an agent capable of inducing insulin-dependent diabetes mellitus (IDDM), also known as type 1 diabetes mellitus (T1DM). The most common animal model of human diabetes is streptozotocin (STZ)-induced diabetes in the rat. Streptozotocin (STZ)-induced diabetic rat model used to determine the skin wound healing. All rats (aged at 12-16 weeks) developed diabetes (blood glucose >450 mg/dL) 2 weeks after STZ injection (50 mg/kg, i.p.). The four excisional wounds were placed 1 cm to either side of the midline and 1 cm above and below the midpoint between the costal margin and the iliac crests. The sterile disposable biopsy punch (5 mm in diameter; Miltex) was aligned vertically over the center of the mark and punched through the skin and Panniculus carnosus by applying pressure and twisting at the same time. The same procedure was repeated, generating four wounds on each animal. Treatment and wound measurement. […] Each wound site was digitally photographed at the indicated time intervals, and wound areas were determined on photographs using Adobe Photoshop (version 7.0; Adobe Systems, San Jose, CA). Changes in wound areas over time were expressed as the percentage of the initial wound areas. All wound evaluations were double blinded.

[2] = tested on: lacZ and GFP positive (CD133 lineage) cells in granulation tissues; assay: CD133 lineage tracing in wounded CD133+/C-L mice; format: in vivo, mouse (CD133+/C-L); details: 5 days after wounding, versus saline group 1
Description: To activate CreERT2 expressed from the CD133C-L locus, thereby irreversibly activating GFP expression in CD133+ cells and their progeny, 7 days prior to surgery, adult mT/mG; CD133+/C-L-RosaEGFP mice were injected intraperitoneally with 5.0 mg of tamoxifen (Sigma) dissolved in corn oil (FIG. 6a; Muzumdar et al., 2007). […] Animal were sacrificed by CO2 euthanasia at indicated time points and skin samples including and surrounding the wound area were excised, fixed in 2% paraformaldehyde overnight at 4° C., cryo-protected in 30% sucrose overnight at 4° C. and frozen in OCT (optimum cutting temperature). Frozen sections were obtained using a Leica cryostat and slides were washed in PBS for 5 min. The lacZ analysis was performed with commercial β-Galactosidase staining kit (BioVision Inc. Milpitas, CA) utilizes X-gal as the substrate. […] For GFP microscopy, the skin sections were overlaid with mounting medium with DAPI (Vector Laboratories Inc., Burlingame, CA) and imaged with a confocal fluorescence microscopy (Carl Zeiss Microscopy, Thornwood, NY). To identify structure of lacZ- and GFP-positive tissues and cells, the same section was sequentially stained with DAPI for GFP fluorescence studies, followed by staining with X-gal and hematoxylin and eosin (H&E) (IHC World, Woodstock, MD), according to the manufacturer's instructions. […]

[3] = tested on: full-thickness skin excisional wounds; assay: in vivo full-thickness excisional wound model, mice; parameters: species or system mouse (C57BL/6); details: for day of complete wound closure: 5-mm excisions, s.c. Tacrolimus 0.1 mg kg-1 daily, AMD3100 1.0 mg kg-1 every other day, saline day 12
From the text: In vivo excisional wound model. Animals aged 8-12 weeks were anesthetized with Isoflurane. The dorsal skin was shaved and cleaned with betadine and 70% ethanol. In mice, the midline and four points 1 cm on each side of the midline were marked by pen. Two points were at the level of the costal margin and two at the iliac crests designating the sites for excision (FIG. 1A). In rats, the four excisional wounds were placed 1 cm to either side of the midline and 1 cm above and below the midpoint between the costal margin and the iliac […] (FIG. 7a). The sterile disposable biopsy punch (5 mm in diameter; Miltex) was aligned vertically over the center of the mark and punched through the skin and Panniculus carnosus by applying pressure and twisting at the same time. The same procedure was repeated, generating four wounds on each animal (Tomlinson and Ferguson, 2003). The animals were house singly after regaining consciousness. For the mouse splinted wound model, one 5 mm excision was made on each side of the midline on the mid back. The donut-shaped, 0.5 mm-thick silicone splints with a diameter two times that of the wound (Grace Bio-Laboratories, Bend, OR) were then centered, sutured and glued (Krazy Glue®; Elmer's Inc., Columbus, OH) (FIG. 1F; Galiano et al., 2004). […] Each wound site was digitally photographed at the indicated time intervals, and wound areas were determined on photographs using Adobe Photoshop (version 7.0; Adobe Systems, San Jose, CA). Changes in wound areas over time were expressed as the percentage of the initial wound areas (FIG. 1). Example 1: AMD3100 plus low-dose Tacrolimus accelerated wound healing after full-thickness skin excision. Four full-thickness wounds were generated by 5-mm diameter circular excisions on the shaved back of a wild-type C57/B6 mouse (FIG. 1A). Each wound site was photographed digitally at the indicated time intervals, and wound areas were calculated using Adobe Photoshop software. Changes in wound areas over time were expressed as the percentage of the initial wound areas (FIG. 1b). […] All wound evaluations were double blinded.

[4] = tested on: α-smooth muscle actin (SMA) positive myofibroblast cells; assay: immunofluorescence staining for α-SMA; format: in vivo, mouse; details: mice, five days; versus saline group 1
Description: (§1) Immunofluorescence staining: For the immunofluorescence staining, frozen sections were fixed with acetone (−20° C.) for 10 min and dried for 1 h at room temperature. PBS containing 1% BSA and 5% normal donkey serum was used to block nonspecific background. Sections were incubated for 1.5 h at room temperature with primary antibodies included: rabbit polyclonal antibody specific for CD133 (1:100, ab19898, Abcam, Cambridge, MA), rabbit polyclonal antibody specific for c-Kit (1:100, sc-168, Santa Cruz Biotechnology, Santa Cruz, CA), goat polyclonal antibody specific for CD34 (1:100, AF4117, R&D Systems, Minneapolis, MN), mouse monoclonal antibody specific for SDF-1 (1:100, MAB310, R&D Systems), FITC-conjugated rat monoclonal antibody specific for F4/80 (1:100, 11-4801, eBioscience, San Diego, CA), mouse monoclonal antibody specific for α-SMA (1:100, ab7817, Abcam), rat monoclonal antibody specific for CD31 (1:100, 14-0311, eBioscience) or rabbit polyclonal antibody specific for HGF (1:100, sc-7949, Santa Cruz), or the combinations of two of them for double fluorescence staining. […] Tissue sections were analyzed by confocal microscopy (Carl Zeiss Microscopy, Thornwood, NY).

[5] = tested on: c-Kit+, CD34+, CD133+ cells in wound tissue; assay: immunofluorescence staining of wound sections for stem cell markers; format: in vivo, mouse; details: mice, 5 days post-injury
Description: as §1

[6] = tested on: hair follicles and scar in healed wounds; assay: histology and hair follicle quantification of re-epithelialized wounds, mice; format: in vivo, mouse; details: day 15
From the text: Histology and microscopy. Tissues from wound sites were collected at day 3, 5, 7, 9 and 15 after injury. Quantitative analysis of hair follicles: The number of regenerated hair follicles was quantified in a double-blind fashion. In nonwounded skin, the number of hair follicles in the area from the same location as the wound were counted and compared to experimental groups (FIG. 2A and FIG. 9A; broken lines indicated wound margin). Masson's trichrome (commercial kit from Polysciences, Inc. Warrington, PA) was used to detect collagen fibers (blue color).

[7] = tested on: full-thickness burn wounds; assay: burn wound model in mice; format: in vivo, mouse; details: burned mice; Tacrolimus 0.1 mg/kg daily, AMD3100 1.0 mg/kg every two days s.c.; saline day 26
Description: Burn wound model in mice. Mice aged […] were anesthetized with 3% isoflurane (Baxter Healthcare Co., Deerfield, IL, USA) using an anesthesia machine, shaved on the dorsum and depilated with Nair cream (Church & Dwight Co., Princeton, NJ, USA). The burn wound was generated as previously reported (Arch Surg 2010; 145: 259-266). Briefly, a custom made 100-g aluminum rod was heated in a 100° C. water bath for 5 min. One burns of 1.2-cm diameter were produced on the dorsum of each mouse. To assure burn uniformity, only the weight of the rod provided pressure to the skin surface. Contact time of 4 s measured with a metronome was chosen to produce a standardized full-thickness burn. The burns were third degree including destruction of the skin, subcutaneous tissue and the Panniculous carnosus. Buprenorphine (0.1 mg/kg) was administrated subcutaneously for analgesia. Treatment and wound measurement. […] Each wound site was digitally photographed at the indicated time intervals, and wound areas were determined on photographs using Adobe Photoshop (version 7.0; Adobe Systems, San Jose, CA). Changes in wound areas over time were expressed as the percentage of the initial wound areas. All wound evaluations were double blinded.

[8] = tested on: cell migration stimulated by CXCL12; details: cited from earlier work
[9] = tested on: splinted skin wounds; assay: excisional wound splinting model, mice; format: in vivo, mouse; details: low-dose regimen, versus saline
From the text: In vivo excisional wound model. Animals aged 8-12 weeks were anesthetized with Isoflurane. The dorsal skin was shaved and cleaned with betadine and 70% ethanol. In mice, the midline and four points 1 cm on each side of the midline were marked by pen. Two points were at the level of the costal margin and two at the iliac crests designating the sites for excision (FIG. 1A). […] The sterile disposable biopsy punch (5 mm in diameter; Miltex) was aligned vertically over the center of the mark and punched through the skin and Panniculus carnosus by applying pressure and twisting at the same time. The same procedure was repeated, generating four wounds on each animal (Tomlinson and Ferguson, 2003). The animals were house singly after regaining consciousness. For the mouse splinted wound model, one 5 mm excision was made on each side of the midline on the mid back. The donut-shaped, 0.5 mm-thick silicone splints with a diameter two times that of the wound (Grace Bio-Laboratories, Bend, OR) were then centered, sutured and glued (Krazy Glue®; Elmer's Inc., Columbus, OH) (FIG. 1F; Galiano et al., 2004).
To deter this mechanism, we performed the excisional wound splinting model, where a splinting ring is bonded tightly to the skin around the wound (FIG. 1e). The wound therefore heals through granulation and re-epithelialization, a process similar to the healing of most human skin defects.

[10] = tested on: SDF-1 mRNA; assay: semi-quantitative RT-PCR of granulation tissues, SDF-1; format: in vivo, mouse; details: mice, 5 days post-injury
Description: Semiquantitative reverse transcription polymerase chain reaction analysis. Skin specimens were kept frozen at −80° C. until homogenized for RNA extraction using the TRIzol Reagent (Invitrogen, Carlsbad, CA, USA). First strand cDNA synthesis was then performed on 5 μg of total RNA using the superscript first-strand synthesis system for reverse transcription polymerase chain reaction (RT-PCR; Invitrogen) according to the manufacturer's instructions. The PCR contained 1 μL of deoxynucleoside triphosphate mix (10 mM each dNTP), 1 μL of 10 μM each primer, 0.4 μL, (5 IU μL−1) of Platinum Taq polymerase (Invitrogen), 1.5 μL of 50 mM MgCl2 and 2 μL […] as template in a 50 μL reaction solution. Thermal cycling was started with one cycle at 94° C. for 4 min. This was followed by 25-35 cycles at 94° C. for 30 s, 59° C. for 30 s, 72° C. for 30 s and 72° C. for final extension for 10 min. PCR products were electrophoresed on 1.2% agarose gels and visualized with GelStar® Stain (Lonza Rockland Inc., Rockland, ME). […] The expression levels of target mRNA were quantified by densitometry and normalized with the corresponding internal control.

[11] = tested on: SDF-1 and F4/80 positive cells (macrophages) in wound sites; assay: immunofluorescence staining for SDF-1 and F4/80; format: in vivo, mouse; details: mice, 5 days post-injury
Description: as §1

Row | Compound | day of complete wound closure [1] | numbers of lacZ and GFP positive cells in granulation tissues [2] | day of complete wound closure [3] | effect of high doses on skin wound healing ([3]; Tacrolimus 1.0 mg kg-1 daily, AMD3100 5.0 mg kg-1 every two days, versus saline) | number of α-SMA positive myofibroblast cells in granulation tissues [4] | number of CD133+, c-Kit+ and CD34+ cells in wound tissue sections [5] | number of hair follicles in re-epithelialized wound [6] | day of complete wound closure [7] | IC50 [8] | wound repair in splinted wounds [9] | SDF-1 mRNA expression in granulation tissues [10] | number of SDF-1 and F4/80 positive cells in wound sites [11]
1 | c1cc(CN2CCCNCCNCCCNCC2)ccc1CN1CCCNCCNCCCNCC1 [AMD3100, 1,1′-[1,4-phenylenebis(methylene)]bis-1,4,8,11-tetraazacyclo-tetradecane] | 21 days | significantly higher | 11 days | no significant difference; also recorded: failed to demonstrate significant difference | increased | relatively mild recruitment of stem cells | few hair follicles | 23 days | 51 nM | accelerated | – | –
2 | C=CC[C@@H]1/C=C(\C)C[C@H](C)C[C@H](OC)[C@H]2O[C@@](O)(C(=O)C(=O)N3CCCC[C@H]3C(=O)O[C@H](/C(C)=C/[C@@H]3CC[C@@H](O)[C@H](OC)C3)[C@H](C)[C@@H](O)CC1=O)[C@H](C)C[C@@H]2OC [Tacrolimus] | 21 days | significantly higher | 11 days | – | increased | – | few hair follicles | 21 days | – | accelerated | significantly increased | significantly greater
